# Assay: gradient 5% acetonitrile 3 min, to 50% in 2 min, to 85% in 15 min, held 3 min, 100 µL/min
# Conditions: column: Zorbax Extend-C18 2.1 x 50 mm; eluents: water / acetonitrile, 0.1% formic acid
# Procedure, shortened: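 Each retention time is based on an adduct peak selected computationally and verified by manual inspection. Measurements used HPLC–quadrupole time-of-flight mass spectrometry in positive and negative ionization mode on mixtures of ~100 pure standards. Chromatography ran on a Zorbax Extend-C18 column (2.1 × 50 mm, 1.8 μm) at 100 μL/min with water and acetonitrile, each containing 0.1% formic acid, and dead and dwell volumes of 40 μL and 900 μL.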
row,RP-LC retention time,Compound
1,1160 s,Cc1ccc(-c2ccc(-n3nc(C)c(S(=O)(=O)NCC(C)C)c3C)nn2)cc1
2,827 s,O=C(N[C@H]1C[C@@H]2C[C@H]1N(C(=O)Cc1c(F)cccc1Cl)C2)c1ccccc1
3,849 s,COC(=O)c1ccc(NC(=O)Cc2csc3nc(-c4ccc(C)c(C)c4)cn23)cc1
4,837 s,Cc1nc(C)c(C(=O)N2CCCC2c2nc(-c3ccc(F)cc3F)no2)s1 (centres undefined)
5,952 s,Cc1ccc(C)c(N2CCN(c3ccnc(SCC(=O)Nc4cc(Cl)ccc4C)n3)CC2)c1
6,708 s,COc1ccc(NC(=O)NCCCn2c(C(F)(F)F)nc3cccnc32)cc1OC
7,700 s,CCCCCn1c(CN(C)C(=O)c2ccco2)nc2ccccc21
8,570 s,Cc1ccnc(NC(=O)C2CCCN(c3cc(=O)n(C)c(=O)n3C)C2)c1 (centres undefined)
9,570 s,c1nc2ccc(-c3nc(-c4ccc5c(c4)nnn5CCN4CCCCC4)no3)cc2[nH]1
10,1020 s,Cc1c(C(=O)NCC2CC2)cnn1-c1cc(-c2nc(C(C)C)no2)ccn1
11,856 s,CCOc1ccccc1-n1ccn(Cc2nc(-c3cccc(OC)c3)no2)c(=O)c1=O
12,1040 s,CCOC(=O)c1sc(NCCc2c[nH]c3ccc(OC)cc23)nc1-c1ccccc1
13,1250 s,CC(C)(C)c1ccc(-c2nc(C3CC(=O)N(c4ccc(F)cc4)C3)no2)cc1 (centres undefined)
14,990 s,Cc1nc(-c2csc(S(=O)(=O)N3CCC(C(=O)Nc4ccc(Cl)cc4F)CC3)c2)no1
15,1080 s,Cc1c(-c2noc(-c3cccc(F)c3)n2)nnn1Cc1ccccc1
16,615 s,CCNC(=O)c1cn(-c2ccc(NC(=O)C3CC3)cn2)cn1
17,968 s,CCc1nnc(-c2cccnc2N2CCN(C(=O)Nc3cc(Cl)cc(Cl)c3)CC2)o1
18,670 s,Cc1ccc(S(=O)(=O)Nc2cccc(-c3nc4ncccn4c3C)c2)cc1
19,878 s,CCOc1ccc(C(=O)N2CCC3(CC2)NC(=O)c2cc(C)ccc2N3CC)cc1
20,1030 s,COc1cc(CN(CC2CCCO2)C(=O)c2oc3ccccc3c2C)cc(OC)c1OC (centres undefined)
21,1090 s,CCCc1nc(-c2ccccc2)oc1CC(=O)N1CCN(c2ccccc2F)CC1
22,759 s,Cc1ccc2oc(-c3noc(C(=O)NCCN4CCC(C)CC4)n3)c(C)c2c1

row,RP-LC retention time,Compound
1,591 s,COCCNC(=O)c1nc(N2CCSCC2)c2c(C)cc(C)nc2n1
2,656 s,Cn1c(CC2CCN(S(=O)(=O)Cc3cccc(Cl)c3)C2)nc2cccnc21 (centres undefined)
3,1050 s,CCOc1ccc(-c2nc(NC(=O)c3ccccc3[N+](=O)[O-])sc2C)cc1
4,793 s,COCCN1C(=O)CCc2cc(NS(=O)(=O)c3ccc(Cl)s3)ccc21
5,610 s,COC(=O)c1cccc(NC(=O)NC(C(=O)N2CCc3ccccc32)C(C)C)c1 (centres undefined)
6,858 s,Cc1nc(-c2cn(-c3cccc(Cl)c3)nn2)no1
7,683 s,COc1ccc(CCNC(=O)C2CCN(c3ncnc4c3oc3ccccc34)CC2)cc1OC
8,567 s,CCn1ncc(C(=O)N2CCCn3ccnc3C2C(C)C)c1C (centres undefined)
9,590 s,O=C(Cc1ccsc1)N1CCC2(CC1)CC(N1CCCCC1)CCO2 (centres undefined)
10,1100 s,CSc1ncccc1-c1nc(-c2ccc3oc(C)nc3c2)no1
11,919 s,Cc1ccccc1-c1nnc(CSc2nnc(NC(=O)c3ccc(Br)o3)s2)o1
12,722 s,CN(CC1CCOC1)C(=O)Nc1ccccc1Cl (centres undefined)
13,738 s,COc1ccc(-c2nnc(N3CCC(C(=O)NCc4ccco4)CC3)o2)cc1
14,782 s,O=C(Cn1cc(S(=O)(=O)N2CCCC2)ccc1=O)N1CCCc2ccccc21
15,993 s,COC(=O)c1ccccc1NC(=O)Cn1c(-c2nonc2N)nc2ccccc21
16,716 s,CCn1cc(CCNC(=O)c2ccccc2OC)c2cccnc21
17,940 s,COc1ccc(-c2nc(-c3cn(Cc4ccc(F)cc4)nn3)no2)c(OC)c1
18,910 s,COc1ccc(NC2=NS(=O)(=O)C(c3ccccc3)=C2C)c(OC)c1
19,884 s,CCOC(=O)C1=C(CN2CCC(Cc3ccccc3)CC2)NC(=O)NC1c1cccs1 (centres undefined)
20,756 s,CC1CCc2nc3ncn(CC(=O)NCCc4ccc(Cl)cc4)c(=O)c3cc2C1 (centres undefined)
21,686 s,COc1cc(=O)n2c(c1C(=O)NC1CCc3ccccc31)CCCC2 (centres undefined)
22,634 s,O=C(CN1C(=O)C(C(=O)N2CCCCC2)Sc2ccccc21)N1CCN(c2ccccn2)CC1 (centres undefined)

row,RP-LC retention time,Compound
1,569 s,Cn1ncc(N2CCC(C(=O)NCc3nc4ccccc4n3C)C2)cc1=O (centres undefined)
2,927 s,CCCC(C)C(=O)NC1CCN(C2=NS(=O)(=O)C(c3ccc(CC)cc3)=C2C)CC1 (centres undefined)
3,1200 s,Cc1ccc(C)c(-c2cc3c(=O)n(Cc4nc(-c5ccccc5)no4)ncn3n2)c1
4,699 s,COCCCNC(=O)C1CCCN(S(=O)(=O)c2cc(OC)ccc2OC)C1 (centres undefined)
5,933 s,CC(C)c1ccc(CNC(=O)CN2CCN(Cc3ccc(F)cc3)C2=O)cc1
6,574 s,CC(=O)N[C@@H]1CCN(Cc2ccccc2C(F)(F)F)C[C@@H]1CO
7,749 s,Cc1csc(-c2cc(S(=O)(=O)Nc3ccc(S(N)(=O)=O)cc3)c(C)n2C)n1
8,815 s,Cc1ccc(CCNC(=O)c2cc3n(n2)CC(C)(C(=O)NCc2ccccc2)N(C)C3=O)cc1 (centres undefined)
9,1420 s,Cc1ccc(S(=O)(=O)c2cnc(N3CCN(c4cc(Cl)ccc4C)CC3)nc2N)cc1C
10,691 s,O=C(CSc1nnc(-c2ccccc2F)o1)Nc1nccs1
11,632 s,O=C1NCCCCCCN(C(=O)c2cnccn2)[C@H]2CCC[C@@H]12
12,1060 s,COc1ccc(C2CCN(S(=O)(=O)c3cccc(C(F)(F)F)c3)C2)cc1 (centres undefined)
13,601 s,O=C(NCCc1ccncc1)C1CC(=O)N(c2n[nH]c3cc(Br)ccc23)C1 (centres undefined)
14,784 s,Cc1cc(NC(=O)N2CCCC(Cn3cnc4cccnc43)C2)ccc1Br (centres undefined)
15,688 s,CNC(=O)C1CCCN(c2nc3ncn(CC(=O)Nc4ccc5c(c4)CCC5)c(=O)c3s2)C1 (centres undefined)
16,822 s,Cc1nncn1C1CCN(S(=O)(=O)c2ccc(CC(C)C)cc2)CC1
17,876 s,CCOC(=O)c1cc(S(=O)(=O)N2CCCC2C(=O)Nc2ccc3c(c2)OCO3)cn1C (centres undefined)
18,648 s,Cc1noc(C)c1CNC(=O)c1ccccn1
19,850 s,CC1(C)Cc2cccc(OCC(=O)NCCc3c[nH]c4ccccc34)c2O1
20,1140 s,CCOc1ccc(-c2nc(-c3ccc4nnn(CC)c4c3)no2)cc1
21,839 s,COc1ccc(C(=O)Nc2cccn3nc(C4CC4)nc23)cc1
22,986 s,CCOc1cc(C(=O)Nc2nnc(-c3ccc(Cl)s3)o2)cc(OCC)c1OCC

row,RP-LC retention time,Compound
1,817 s,Cc1cc2c(=O)n(CC(=O)Nc3cc(F)ccc3F)ccc2s1
2,671 s,CN(C)c1ccc(C(=O)N2CCc3cn(C)c4cccc(c34)C2)cc1
3,613 s,COc1ccc(Cl)cc1NC(=O)CSc1ccc(-n2ccnc2)nn1
4,1100 s,CCc1cccc(NC(=O)Cn2cnc3c(sc4nc(-c5ccccc5)ccc43)c2=O)c1
5,719 s,Cc1nc(-c2ccccc2)cc2nn(CC(=O)Nc3ccc4c(c3)OCO4)c(=O)n12
6,627 s,CCc1cc(=O)n(CC(=O)NCc2ccc(Cl)cc2)c(N)n1
7,764 s,NC(=O)C1(c2cccc(C(F)(F)F)c2)CC1
8,1310 s,CCOc1nc2ccccc2nc1N1CCCC(C(=O)Nc2cccc(Cl)c2C)C1 (centres undefined)
9,1250 s,CCCNC(=O)C1CCCN(c2nc3ccsc3c(=O)n2-c2ccc(C)cc2)C1 (centres undefined)
10,631 s,O=C(NCc1cccs1)c1ccnc(N2CCNC(c3ccccc3)C2)c1 (centres undefined)
11,773 s,C=CCNC(=O)N1CCCN(C2=NS(=O)(=O)C(c3cccc(Cl)c3)=C2C)CC1
12,674 s,O=C(c1ccco1)N1CCCC(c2cc(-c3ccc(F)cc3)n[nH]2)C1 (centres undefined)
13,800 s,COc1ccc(C(=O)N2CCCC2COc2ccc(C(=O)N3CCCC3)cc2)cc1 (centres undefined)
14,970 s,CCOC(=O)C1=CN(Cc2ccccc2)S(=O)(=O)N=C1C
15,818 s,CCn1ccc2sc(C)c(C(=O)NCc3ccccc3F)c2c1=O
16,765 s,COCCCNC(=O)Cn1nc2cc(C)nc(-c3ccc(C(F)(F)F)cc3)n2c1=O
17,1020 s,CC(C)N1C(=O)C(C)(C(=O)Nc2cccc(F)c2)Oc2cccnc21 (centres undefined)
18,1130 s,Cc1cc(C)cc(-n2c(-c3ccc(Cl)cc3)cn3c4c(=O)n(C)c(=O)n(C)c4nc23)c1
19,597 s,CC1CCCCN1Cc1nnc(-c2ccccc2)o1 (centres undefined)
20,772 s,O=c1c2nc(-c3ccc4c(c3)OCO4)cn2ccn1-c1ccc(F)cc1
21,670 s,COc1cc2c(C(=O)OCCc3ccccn3)cn(-c3ccccc3)c(=O)c2cc1OC

row,Compound,RP-LC retention time
1,CCCN1CCC[C@H](c2cccc(O)c2)C1,588 s
2,COc1cccc(CN2CC[C@@H]3CN(S(C)(=O)=O)[C@@H]3C2)n1,553 s
